From ChEMBL document CHEMBL5357019, “Targeted Combination Therapies: A New Frontier in the Treatment of TP53 and KRAS Mutation-Associated Cancers” (2024) come the findings set out here.

The structures appear in SMILES notation.

What all share (type): functional
For assay [1], the system named is MIA PaCa-2. Put plainly: Antitumor activity against human MIA PaCa-2 cells assessed as inhibition of cell growth at 1000 nM incubated for 72 hrs by Celltiter Glo assay.
Assay [2] relates to NCI-H23. The assay is described as follows: Synergistic antitumor activity against human NCI-H23 cells assessed as inhibition of cell growth at 120 nM incubated for 72 hrs in presence of sotorasib by Celltiter Glo assay relative to control. A general note: Cellular ATP, detected with luciferase, serves as a proxy for viable cell number.
Assay [3] deals with SW837. The assay is described as follows: Synergistic antitumor activity against human SW837 cells assessed as tumor growth inhibition at 60 mg/kg, po once daily for 18 days co-administered with sotorasib relative to control. As to conditions: SW837, 432 h, time 18 day, read-out: TGI.
Assay [4] deals with SW837. Put plainly: Antitumor activity against human SW837 cells assessed as inhibition of cell growth at 1000 nM incubated for 72 hrs by Celltiter Glo assay relative to control.
Assay [5] concerns NCI-H358. Put plainly: Synergistic antitumor activity against human NCI-H358 cells assessed as inhibition of cell growth at 300 nM incubated for 72 hrs in presence of sotorasib by Celltiter Glo assay relative to control.
For assay [6], the system named is MIA PaCa-2. Put plainly: Synergistic antitumor activity against human MIA PaCa-2 cells assessed as inhibition of cell growth at 1000 nM incubated for 72 hrs in the presence of sotorasib by Celltiter Glo assay.
For assay [7], the system named is NCI-H23. The assay is described as follows: Antitumor activity against human NCI-H23 cells assessed as inhibition of cell growth at 120 nM incubated for 72 hrs by Celltiter Glo assay relative to control.
The test system of assay [8] is SW837. The assay is described as follows: Antitumor activity against human SW837 cells xenografted in mouse assessed as tumor growth inhibition at 60 mg/kg, po administered once daily for 18 days relative to control. As to conditions: SW837, 432 h, time 18 day, read-out: TGI. In general terms: A xenograft is tissue or cells of one species grown in another, often human tumour cells in immunodeficient mice.

The test system of assay [9] is NCI-H358. The assay is described as follows: Antitumor activity against human NCI-H358 cells assessed as inhibition of cell growth at 300 nM incubated for 72 hrs by Celltiter Glo assay relative to control.
Assay [10] concerns SW837. The assay is described as follows: Synergistic antitumor activity against human SW837 cells assessed as tumor regression at 60 mg/kg, po once daily for 18 days co-administered with sotorasib relative to control. As to conditions: time 18 day.
Assay [11] deals with SW837. Put plainly: Synergistic antitumor activity against human SW837 cells assessed as inhibition of cell growth at 1000 nM incubated for 72 hrs in presence of sotorasib by Celltiter Glo assay relative to control.
The subject of assay [12] is MIA PaCa-2. Put plainly: Antitumor activity against human MIA PaCa-2 cells assessed as inhibition of cell growth at 350 nM incubated for 72 hrs by Celltiter Glo assay.
Assay [13] relates to NCI-H358. Put plainly: Antitumor activity against human NCI-H358 cells assessed as inhibition of cell growth at 10 nM incubated for 72 hrs by Celltiter Glo assay relative to control.
Assay [14] has as its system NCI-H23. The assay is described as follows: Antitumor activity against human NCI-H23 cells assessed as inhibition of cell growth at 40 nM incubated for 72 hrs by Celltiter Glo assay relative to control.
In assay [15] the test system is SW837. Put plainly: Antitumor activity against human SW837 cells assessed as inhibition of cell growth at 12 nM incubated for 72 hrs by Celltiter Glo assay relative to control.
Assay [16] deals with SW837. Put plainly: Antitumor activity against human SW837 cells xenografted in mouse assessed as tumor growth inhibition at 30 mg/kg, po administered once daily for 18 days relative to control. As to conditions: SW837, 432 h, time 18 day, read-out: TGI.

`C=CCn1c(=O)c2cnc(Nc3ccc(N4CCN(C)CC4)cc3)nc2n1-c1ccc2c(n1)[C@@](O)(CC)CC2` [AZENOSERTIB]: the inhibition at 1 µM stood at 47% in assay [1], 28.8% in assay [4], 76% in assay [6] and 45.4% in assay [11]. Also, the figures for the inhibition at 0.12 µM in assay [2] and in [7] were 53% and 16.5%, respectively. Moreover, the values for the inhibition in vivo at 60 mg/kg in [3] and in assay [8] were 109% and 72%, respectively. The values for the inhibition at 0.3 µM in [5] and in assay [9] were 55.6% and 31.5%, respectively. Further, the Activity in assay [10] is recorded as 23%.
On to `C=CC(=O)N1CCN(c2nc(=O)n(-c3c(C)ccnc3C(C)C)c3nc(-c4c(O)cccc4F)c(F)cc23)[C@@H](C)C1` [SOTORASIB], for which the inhibition at 0.35 µM in [12] stood at 39%. Also, in assay [13], the inhibition at 0.01 µM was found to be 24%. The inhibition at 0.04 µM in [14] was 27.8%. Moreover, the inhibition at 0.012 µM in [15] amounted to 20.7%. Moreover, the inhibition in vivo at 30 mg/kg in assay [16] worked out at 80%.

What is called inhibition is the drop in the measured response relative to a control, in per cent.
